Earlier results, collected in patent US20220152157A1 (priority 2020, published 2022).
Read-outs that look alike come from different tables or passages of the source.

What was measured:
influenza A virus = conditions: for membrane convergence of virus and host cell: influenza A, model MDCK cells
[1] = system: Toll-like receptors (TLR)
pulmonary inflammation = conditions: in vivo
virus [2] = conditions: mice
virus [3] = conditions: ferrets
[4] = system: human respiratory viruses; conditions: combined with ribavirin, in vitro
[5] = system: human respiratory viruses; conditions: combined with ribavirin, experimental animal models

Row | Compound | binding affinity for the influenza A virus (influenza A virus) | binding of the influenza A virus to the surrogate host cells (influenza A virus) | membrane convergence of virus and host cell (influenza A virus) | deactivation of Toll-like receptors (TLR) [1] | lowering of total inflammatory cell infiltrates (neutrophils and lymphocytes) (pulmonary inflammation) [%] | virus-induced proinflammatory cytokines (pulmonary inflammation) | viricidal effect (virus [2]) | viricidal effect (virus [3]) | antiviral effects of the combination [4] | antiviral effects of the combination [5]
1 | 1-palmitoyl-2-oleoyl-sn-glycero-3-phosphoglycerol [POPG] | high binding affinity | prevent the binding | inhibited | deactivators of Toll-like receptors | > 90 | reduced | viricidal | viricidal |  | 
2 | CCCCC/C=C\C/C=C\C/C=C\C/C=C\CCCC(=O)OC(COC(=O)CCCCCCCCCCCCCCCCC)COP(=O)(O)OC1C(O)C(O)C(O)C(O)C1O (centres unmarked) [PI, phosphatidyl inositol] | high binding affinity | prevent the binding | inhibited | deactivators of Toll-like receptors |  | reduced |  |  |  | 
3 | CC(N)C12CC3CC(CC(C3)C1)C2 (centres unmarked) [Rimantadine] |  |  |  |  |  |  |  |  | increased antiviral effects | increased antiviral effects
4 | NC12CC3CC(CC(C3)C1)C2 [amantadine] |  |  |  |  |  |  |  |  | increased antiviral effects | increased antiviral effects
